How the values were obtained:
[1] = molecular target: T1, Klebsiella ozaenae bromoxynil-specific nitrilase, N-terminal modified variant nit-23 (pBrx23) (Klebsiella pneumoniae, UniProt P10045); experiment: Kinetics of purified N-terminal modified nitrilase; assay type: biochemical, Klebsiella pneumoniae sub-species ozaenae; conditions: purified nit-23
T1 construct: natural N-terminus truncated (Bal31, about 51 nt removed) and replaced by 17 pUC19-encoded residues; purified enzyme
Experimental: Plasmid pBrx9 was digested with BamH1, followed by resection with Bal31 for about 5 min to remove about 51 nt. The enzyme was inactivated, the resected linear DNA sequence ligated with BamH1 linkers, digested with BamH1 and recircularized under ligating conditions. […] This fragment was inserted into pCGN 566 which had been completely digested with BamH1 and SmaI to produce plasmid pBrx23, of 3.7Kb. Plasmid pCGN 566 is a derivative of pUC13 with polylinkers from pUC18 and pUC19 and the chloramphenicol resistance gene. The fragment from pBrx15 is inserted to be in reading frame with an upstream initiation codon and where 17 amino acids encoded by the pUC19 sequence replace amino acids of the naturally occurring nitrilase.
The following provides the sequence of the N-terminal modified nitrilase (nit-23). [drawing 3] Purification of the Wild-Type and Altered Nitrilase
Nitrilase was prepared from stationary phase MM 294 E. coli cells containing the pBrx9, pBrx11 or pBrx28 plasmids. Cultures were grown under ampicillin selection until the whole cell nitrilase assay yielded an OD640 of approximately 2.0. Cultures were centrifuged at 8,000 xg for 15 min at 4° C. The cells were washed in 0.1M potassium phosphate buffer pH 7.4, repelleted, dried, and frozen at -20° C. The pellet was thawed at 4° C. and resuspended in 40 ml 50 mM potassium phosphate buffer with 1 mM dithiothreitol, 0.1 mM EDTA (KDE). […]

tobacco leaf sections = experiment: Tobacco leaf sections in bromoxynil containing media under photoautotrophic conditions; assay type: cell-based, Nicotiana tabacum cv. "Xanthi"
Experimental: The plasmids were transformed into A, tumefaciens strain LBA4404, followed by co-cultivation with tobacco (Nicotiana tabacum cv. "Xanthi") cotyledonary explants. Kanamycin-resistant shoots were regenerated into tobacoo plants in accordance with conventional techniques.
Approximately 5 mm leaf section from surface-sterilized (10% hypochloriate; water-washed) leaves were suspended in bromoxynil containing media under photoautotrophic conditions. The media employed was MS salts containing 0.93 mg/l naphthylacetic acid and 0.11 mg/l benzylaminopurine, with varying amounts of bromoxynil. The concentration of bromoxynil varied from 10^-3 to 10^-6 M at 0.1 dilutions. The photoautotrophic conditions were 5% CO2, 10% O2, 85% N2. Control tobacco leaf sections which had not been transformed were bleached (inhibited) at 10^-6 M bromoxynil. By contrast, transformed leaf sections expressing the bromoxynil-specific nitrilase from plasmids pBrx39 and pBrx40 were resistant to 10^-5 M and 10^-4 M bromoxynil, respectively.

tomato leaf sections = experiment: Tomato leaf sections in bromoxynil-containing medium under photoautotrophic conditions; assay type: cell-based, Lycopersicon esculentum cv. UC828
Experimental: Co-cultivation of tomato (Lycopersicon esculentum cv. UC828) cotyledonary explants was carried out as described previously with tobacco and kanamycin shoots regenerated. […] Approximately 5 mm leaf sections from surface-sterilized(10% hypochlorite; water washed) leaves were suspended in bromoxynil-containing medium at varying concentrations under photoautotrophic conditions. The media was MS salts containing 2 mg/l […], 1 mg/l isopentyladenine and 100 mg/l myoinositol and bromoxynil at 10^-5 or 10^-6 M. The same photoautotrophic conditions were employed as described for tobacco. […] Transgenic tomato plants (10-20 leaf stage) were sprayed with a commercial formulation of bromoxynil (BUCTRIL) and found to be resistant at 0.5 lbs/acre.

N#Cc1cc(Br)c(O)c(Br)c1 = experiment: Kinetics of purified wild-type bromoxynil-specific nitrilase; assay type: biochemical, Klebsiella pneumoniae sub-species ozaenae; conditions: other: purified nit-wt, substrate not given, 30.0 °C
Experimental: All four colonies were grown in 200 mls L-broth containing 0.05% bromoxynil. Cells were disrupted with a French press, the high speed supernatants dialyzed against buffer containing 0.05M KPO, pH7.5; 2.5 mM dithiothreitol (DTT) and the individual crude extracts assayed for bromoxynil specific nitrilase activity. […] Cells (200 ml) were grown at 30° C. to mid log phase in M9 medium (Miller (1972) Experiments in Molecular Genetics, Cold Spring Harbor Laboratory) containing 0.1% glucose and 0.04% bromoxynil. Crude extracts were prepared by cell disruption, ultracentrifugation and dialysis of the supernatant in buffer containing 0.05M KPO4 pH 7.5 and 2.5 mM DTT. Substrate concentarion was 3 mM bromoxynil in all assays. Release of NH3 was monitored according to Harper Biochem. J. (1977) 167:685-692. The ability of K. ozaenae variant to grow in L-broth containing bromoxynil may result in acquired impermeability of the organism to the compound. However, the organism cannot grow in defined media utilizing bromoxynil as sole nitrogen source.
Nitrilase was prepared from stationary phase MM 294 E. coli cells containing the pBrx9, pBrx11 or pBrx28 plasmids. Cultures were grown under ampicillin selection until the whole cell nitrilase assay yielded an OD640 of approximately 2.0. Cultures were centrifuged at 8,000 xg for 15 min at 4° C. […]

Molecule | Km [1] | Vmax [1] | minimal effective concentration (tobacco leaf sections; Nicotiana tabacum, control tobacco leaf sections, not transformed, read-out: concentration at which leaf sections were bleached (inhibited)) | concentration to which leaf sections were resistant (tobacco leaf sections; transformed tobacco leaf sections expressing nitrilase from pBrx39) | concentration to which leaf sections were resistant (tobacco leaf sections; transformed tobacco leaf sections expressing nitrilase from pBrx40) | minimal effective concentration (tomato leaf sections; Solanum lycopersicum, control tomato leaf sections, not transformed, read-out: concentration at which leaf sections were bleached) | concentration to which leaf sections were resistant (tomato leaf sections; transformed tomato expressing nitrilase gene from pBrx29) | Km (N#Cc1cc(Br)c(O)c(Br)c1)
N#Cc1cc(Br)c(O)c(Br)c1 [bromoxynil, 3,5-dibromo-4-hydroxybenzonitrile] | 110 µM | 9 µmol/min/mg | 1 µM | 10^-5 M | 10^-4 M | 1 µM | 10^-5 M | 
Klebsiella ozaenae bromoxynil-specific nitrilase, wild type (nit-wt, from pBrx9) (Klebsiella pneumoniae subsp. ozaenae) |  |  |  |  |  |  |  | 310 µM

Source: patent US4810648A, “Haloarylnitrile degrading gene, its use, and cells containing the gene” (Rhone Poulenc Agrochimie, priority 1987, dated 1989)
